Patent US20080269202A1, “Novel 2,3-benzodiazepine derivatives and their use as antipsychotic agents” (Teva Pharmaceutical Industries Ltd., priority 2007, published 2008)
pKi: −log10 of the molar value. Like-named read-outs stand apart in the source and are kept apart here.

Assays:
[1] = molecular target: central dopaminergic receptors (Homo sapiens, UniProt P21728); assay: in vitro binding profile to central dopaminergic receptors (Table 3); conditions: human recombinant CHO cells, ligand [3H]SCH-23390; read-out: D1 binding
central dopaminergic receptors (Homo sapiens, UniProt P21728), sequence (P21728 whole entry): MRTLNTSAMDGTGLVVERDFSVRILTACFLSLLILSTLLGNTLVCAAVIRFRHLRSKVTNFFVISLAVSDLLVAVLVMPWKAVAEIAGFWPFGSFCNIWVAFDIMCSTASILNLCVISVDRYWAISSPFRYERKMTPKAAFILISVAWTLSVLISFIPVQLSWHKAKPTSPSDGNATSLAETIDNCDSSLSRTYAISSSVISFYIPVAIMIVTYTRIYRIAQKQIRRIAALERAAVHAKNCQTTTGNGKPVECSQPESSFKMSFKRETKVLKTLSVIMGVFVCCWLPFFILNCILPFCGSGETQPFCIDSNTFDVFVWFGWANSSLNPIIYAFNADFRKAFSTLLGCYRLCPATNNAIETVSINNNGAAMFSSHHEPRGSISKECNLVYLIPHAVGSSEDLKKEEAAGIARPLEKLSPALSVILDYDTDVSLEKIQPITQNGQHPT
Excerpt: (§1) The new 2,3-benzodiazepine atypical antipsychotic agents of formula (I) of the present invention influence dopaminergic neurotransmission by a unique indirect fashion, differently from both the first and second generation antipsychotics. The in vitro binding profile of these compounds (Table 3) differs from that of the first generation antipsychotics which bind to dopaminergic receptors and second generation antipsychotics, representatives of which show affinity for dopaminergic, serotonergic, or adrenergic receptors.

[2] = molecular target: T1, central dopaminergic receptors (Homo sapiens, UniProt P21917); assay: as above; conditions: human recombinant CHO-K1 cells, ligand [3H]spiperone; read-out: D4 binding
T1 sequence (P21917 1-419): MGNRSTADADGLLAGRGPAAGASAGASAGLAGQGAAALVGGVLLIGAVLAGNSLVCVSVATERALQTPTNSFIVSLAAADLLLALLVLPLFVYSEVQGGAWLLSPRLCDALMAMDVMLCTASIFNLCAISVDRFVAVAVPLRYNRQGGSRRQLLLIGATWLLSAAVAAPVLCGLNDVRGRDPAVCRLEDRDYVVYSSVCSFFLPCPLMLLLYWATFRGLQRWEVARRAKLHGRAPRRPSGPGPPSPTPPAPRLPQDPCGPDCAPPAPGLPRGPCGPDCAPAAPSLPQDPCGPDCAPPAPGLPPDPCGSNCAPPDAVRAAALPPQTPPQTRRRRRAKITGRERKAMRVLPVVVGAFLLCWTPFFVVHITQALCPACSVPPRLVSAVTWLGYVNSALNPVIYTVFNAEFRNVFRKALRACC
Excerpt: as §1

[3] = molecular target: central dopaminergic receptors (Homo sapiens, UniProt P35462); assay: as above; conditions: human recombinant CHO cells, ligand [3H]spiperone (footnote prints D2); read-out: D3 binding
central dopaminergic receptors (Homo sapiens, UniProt P35462), sequence (P35462 whole entry): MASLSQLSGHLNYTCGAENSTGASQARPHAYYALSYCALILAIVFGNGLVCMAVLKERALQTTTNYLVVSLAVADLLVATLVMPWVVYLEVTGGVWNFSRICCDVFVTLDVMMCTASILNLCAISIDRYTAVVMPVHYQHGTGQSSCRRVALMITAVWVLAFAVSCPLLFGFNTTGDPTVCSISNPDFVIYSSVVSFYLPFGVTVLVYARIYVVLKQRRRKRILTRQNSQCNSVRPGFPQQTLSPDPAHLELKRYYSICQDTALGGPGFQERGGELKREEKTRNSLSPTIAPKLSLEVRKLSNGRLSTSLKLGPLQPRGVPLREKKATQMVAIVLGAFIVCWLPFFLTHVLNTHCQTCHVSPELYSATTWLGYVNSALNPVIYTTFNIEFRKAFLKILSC
Excerpt: as §1

[4] = molecular target: central dopaminergic receptors (Rattus norvegicus, UniProt P61169); assay: as above; conditions: rat striatal membranes, ligand [3H]sulpirid; read-out: D2 binding
central dopaminergic receptors (Rattus norvegicus, UniProt P61169), sequence (P61169 whole entry): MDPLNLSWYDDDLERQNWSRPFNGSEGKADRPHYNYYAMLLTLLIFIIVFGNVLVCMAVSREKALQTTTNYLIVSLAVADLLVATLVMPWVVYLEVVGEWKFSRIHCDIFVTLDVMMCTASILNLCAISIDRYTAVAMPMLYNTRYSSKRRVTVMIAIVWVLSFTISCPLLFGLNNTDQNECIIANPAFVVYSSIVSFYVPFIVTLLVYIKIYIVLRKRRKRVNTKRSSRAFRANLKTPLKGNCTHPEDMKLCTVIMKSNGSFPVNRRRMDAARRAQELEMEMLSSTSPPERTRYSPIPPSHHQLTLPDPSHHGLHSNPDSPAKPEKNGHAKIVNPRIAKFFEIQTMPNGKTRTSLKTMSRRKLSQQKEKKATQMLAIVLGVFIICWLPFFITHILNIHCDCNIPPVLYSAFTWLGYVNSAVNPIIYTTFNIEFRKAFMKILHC
Excerpt: as §1

[5] = molecular target: T2, serotonergic receptors (Rattus norvegicus, UniProt P14842); assay: in vitro binding profile to serotonergic receptors (Table 3); conditions: rat cerebral cortical membranes, ligand [3H]ketanserin; read-out: 5HT2A binding
T2 construct: other: rat cerebral cortical membranes, ligand [3H]ketanserin
T2 sequence (P14842 whole entry): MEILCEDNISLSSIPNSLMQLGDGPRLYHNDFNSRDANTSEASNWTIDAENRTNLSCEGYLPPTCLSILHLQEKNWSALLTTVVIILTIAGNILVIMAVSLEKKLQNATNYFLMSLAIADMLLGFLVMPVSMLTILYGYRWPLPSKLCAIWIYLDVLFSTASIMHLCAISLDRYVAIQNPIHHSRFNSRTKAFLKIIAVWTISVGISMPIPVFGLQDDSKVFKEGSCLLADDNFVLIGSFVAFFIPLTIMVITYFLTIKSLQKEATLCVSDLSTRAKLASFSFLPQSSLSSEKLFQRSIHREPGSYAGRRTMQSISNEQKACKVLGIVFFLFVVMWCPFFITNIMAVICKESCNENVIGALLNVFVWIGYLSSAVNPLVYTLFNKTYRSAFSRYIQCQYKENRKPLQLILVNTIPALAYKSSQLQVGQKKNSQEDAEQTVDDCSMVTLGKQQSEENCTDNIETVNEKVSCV
Excerpt: as §1

[6] = molecular target: T3, Melatonin (MT2) receptor (Homo sapiens, UniProt P49286); assay: in vitro inhibition, melatonin (MT2) receptor; assay type: binding; conditions: conc: 10 μM
T3 sequence (P49286 1-362): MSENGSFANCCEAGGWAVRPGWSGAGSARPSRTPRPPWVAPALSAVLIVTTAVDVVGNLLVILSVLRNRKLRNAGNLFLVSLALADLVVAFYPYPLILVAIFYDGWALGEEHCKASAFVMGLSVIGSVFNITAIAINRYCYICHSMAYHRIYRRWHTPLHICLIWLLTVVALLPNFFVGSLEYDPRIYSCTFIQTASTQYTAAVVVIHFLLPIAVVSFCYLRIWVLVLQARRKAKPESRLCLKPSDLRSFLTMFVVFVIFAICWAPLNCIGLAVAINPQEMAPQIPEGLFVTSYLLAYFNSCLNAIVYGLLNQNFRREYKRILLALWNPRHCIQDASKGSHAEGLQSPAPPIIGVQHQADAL

[7] = test system: conditioned avoidance responses; assay: conditioned avoidance: pole jumping test in rats; assay type: in vivo, Long-Evans rats
Excerpt: For measuring the antipsychotic potential in a non-perturbed dopamine system the pole jumping assay was used (Cook, L., Catania, A. C. Fed. Proc. 1964, 23, 818.)
This method is an active avoidance learning test. Long-Evans rats, weighing 250-450 g, were used in the experiments. Rats are placed in a box (25×25×25 cm) on a grid floor in the center of which there is a pole. After a latency period, light is turned on for a given time then the floor is electrified to deliver an unpleasant footshock. Rats may learn to avoid the shock by jumping up to grasp the pole. As soon as the rat jumps up the light and shock are turned off. Each light-on period lasted for 15 s, shock time for 30 s with an intertrial interval of 15 s. 30 such trials per day were repeated during the learning period until animals reach a minimum of 80% avoidance rate. During the experimental sessions 20 trials/day were run. Test substances were administered ip. in a volume of 0.25 ml/100 g body weight. Significances were calculated by Student's t test.

[8] = test system: PCP-induced stereotypy; assay: PCP-induced stereotypy in mice; assay type: in vivo, CD1 mice; conditions: Mus musculus, read-out: PCP-stereotypy ED50 mg/kg po.
Excerpt: (§2) Alterations in the mesocortical dopaminergic tract are thought to be responsible for the negative symptoms of schizophrenia (flattening of affect, poverty of speech, lack of volition and drive, loss of feeling, social withdrawal and decreased spontaneous movement). The best animal model of these symptoms is the behavioral changes induced by PCP (phencyclidine). The PCP-induced stereotypy and hypermotility was investigated in mice according to Ljungberg and Ungerstedt (Ljungberg, T., Ungerstedt, U. Pharmacol. Biochem. Behav., 1985, 23, 479,) and Jawitt (Jawitt, D. C. Amer. J. Psychiatry, 1991, 145, 1301). The stereotypy experiments were carried out in male CD1 mice weighing 20-25 g. The animals were starved for 16 hours before treatment without limitation of water availability. In the stereotypy studies, 30 min before treatment, mice were individually placed into small, transparent acrylic cages for habituation. Test substances were administered orally in a volume of 0.1 ml/10 g. 30 min later mice were treated with PCP with an intraperitoneal dose of 7 mg/kg. Stereotyped behavior was observed every 5th min for 60 min and scored from 0 to 4. The scores were summed individually, averaged and compared to the control group.
(§3) In both studies the ED50 values were calculated by the Litchfield-Wilcoxon's method (J. Pharmacol. Exp. Ther. 1949, 96, 49).

[9] = test system: PCP-induced hypermotility; assay: PCP-induced hypermotility (motor activity meter) in mice; assay type: in vivo; conditions: Mus musculus, read-out: PCP-hypermotility ED50 mg/kg po.
Excerpt: as §2
The motor activity was measured in a 4-channel activity meter. The apparatus consisted of acrylic cages (40×40×32 cm) equipped with 16 pairs of infrared photocells. The photocells' beam, when broken, signaled a count, which was then recorded by a computer. A 5 mg/kg intraperitoneal dose of PCP was administered 5 min before the experiment. This dose of PCP induces 110-120% increase of the spontaneous motor activity. Test substances were administered orally 15 min before experiment, and mice were investigated individually in the experimental cages for 60 min. 10 mice/group were used. The total counts for each experimental group were compared to the vehicle treated control group.
as §3

[10] = mice, po. 30 min before PCP 7 mg/kg ip
[11] = mice, po. 15 min before experiment, PCP 5 mg/kg ip

SMILES | pKi [1] | pKi [2] | pKi [3] | pKi [4] | pKi [5] | inhibition at 10 µM [6] [%] | MED (mg/kg ip), minimal effective dose (stat. sign.) [7] [mg/kg] | ED50 [8, 10] [mg/kg] | ED50 [9, 11] [mg/kg] | ED50 [8] [mg/kg] | ED50 [9] [mg/kg]
COc1cc2c(cc1OC)C(c1ccc(N)c(C)c1)=NN(c1nncs1)[C@H](C)C2 [Example 110] | < 5.00 | < 5.00 | < 5.00 | < 5.00 | < 5.00 | 95 | 2 | 2.38 | 1.4 | – | –
COc1cc2c(cc1OC)C(c1ccc(N)c(C)c1)=NN(c1ncon1)[C@H](C)C2 [Example 104] | < 5.00 | < 5.00 | < 5.00 | < 5.00 | < 5.00 | 80 | 15 | 1.12 | 0.73 | – | –
CNC(=O)N1N=C(c2ccc(N)cc2)c2cc(OC)c(OC)cc2C[C@H]1C [Example 121] | < 5.00 | < 5.00 | < 5.00 | < 5.00 | < 5.00 | 80 | 5 | – | – | 1.56 | 0.87
CNC(=O)N1N=C(c2ccc(N)c(C)c2)c2cc(OC)c(OC)cc2C[C@H]1C [Example 123] | < 5.00 | < 5.00 | < 5.00 | < 5.00 | < 5.00 | 64 | 2 | – | – | 1.07 | 0.62
